Experimental data: patent US20240026300A1, “KIDNEY EXTRACELLULAR MATRIX-DERIVED SCAFFOLD FOR CULTURE AND TRANSPLANTATION OF KIDNEY ORGANOID AND METHOD OF PREPARING THE SAME” (CELLARTGEN INC., priority 2020, published 2024)

Test system: mouse kidney organoid
Assay: Kidney fibrosis model by TGF-β treatment of kidney organoid
Assay type: cell-based
Protocol: A kidney fibrosis model was constructed using a kidney organoid cultured in the KEM hydrogel. To this end, kidney fibrosis was induced by treatment of a mouse kidney organoid with TGF-b. On day 9 of kidney organoid culture (subculture once on day 7 and additional culture for 2 days), the kidney organoids were treated with each concentration of TGF-β for 3 days and then analyzed on day 12. A kidney organoid not treated with TGF-β (NT, No treatment) was compared as a control group.

TGF-β
Acta2 and Colla1 (fibrosis markers) mRNA expression levels, qPCR (TGF-β for 3 days, analyzed day 12): increased in proportion to the increase in treatment concentration
kidney organoid morphology and growth (each concentration of TGF-β for 3 days, analyzed day 12): exhibited morphological changes and did not grow well
hydrogel and organoid appearance after TGF-β (organoid cultured in 7 mg/ml KEM hydrogel): the KEM hydrogel contracted and fibrosis-induced organoids agglomerated in a mass
Vimentin, COL1, α-SMA (fibrosis markers) expression, immunostaining (organoids in Matrigel and KEM scaffolds): expression of all fibrosis markers was increased
